32 compounds from patent publication US11040036B2, “Pyruvate kinase activators for use in treating blood disorders” (Agios Pharmaceuticals, Inc., priority 2017, dated 2021) can be followed below.

Broadly, the AC50 is the concentration at which the activity in the assay is half-maximal.

Assay [1] deals with T1, wild type PKR (Homo sapiens, UniProt P30613). Kind of assay: PKR mutant assay (AC50), wild type PKR. To be noted: wild type PKR enzyme; for AC50: read-out: PKR WT AC50. It counts as biochemical. On the procedure:
(§1) Example 11. PKR Mutant Assay
(§2) PKR or PKR mutant enzyme solution was diluted into a reaction mix, which contains 1× buffer (100 mM KCl, 50 mM Tris pH 7.5, 5 mM MgCl2) as well as PEP (cont depends on enzyme), 180 μM NADH, 0.5 units LDH, 1 mM DTT, 0.03% BSA; final assay concentrations after 1.11 fold dilution are indicated.
(§3) 2 μL of test compound was added into wells first, and then 180 μL reaction mix was added.
(§4) Reactions mixture with test compound was assembled except for ADP, and plates were stored for 60 minutes at room temperature.
(§5) 20 uL ADP was added to start reaction at room temperature and reaction progress was measured as changes in absorbance at 340 nm wavelength at room temperature.
(§6) Test Compound Preparation:
(§7) Test compound stock was made at 100× concentration in 100% DMSO (10 mM)
(§8) 1 to 3 dilutions were made for 11 points (i.e. 50 μl of first concentration added to 100 μl 100% DMSO to yield 3.33 mM, 50 μl of this added to 100 μl DMSO to yield 1.11 mM, and so forth) • 1 to 100 dilution into assay (2 μl in 200 μl) yielded starting concentration of 100 μM, decreasing 3 fold for 11 points.
(§9) Assay Buffer: 100 mM KCl, 50 mM Tris 7.5, 5 mM MgCl2, 1 ruM DTT, 0.03% BSA
(§10) Reaction Mixture: PKR mutant enzyme: 40-400 ng/well; ADP: 0.2-1.65 mM; PEP: 0.1-0.5 mM; NADH:180 μM; LDH: 0.5 units (Sigma #59023); DTT: 1 mM; BSA: 0.03%.

The target in assay [2] is PKR K410E (Homo sapiens, UniProt P30613, K410E). Kind of assay: PKR mutant assay (AC50), PKR K410E. The assay is classed as biochemical. The conditions noted are these: PKR K410E mutant enzyme. On the procedure:
as §1, §2, §3, §4, §5, §6, §7, §8, §9, §10

The target of assay [3] is PKR R510Q (Homo sapiens, UniProt P30613, R510Q). Kind of assay: PKR mutant assay (AC50), PKR R510Q. The assay is classed as biochemical. To be noted: PKR R510Q mutant enzyme; for AC50: read-out: PK R510Q AC50. The procedure:
as §1, §2, §3, §4, §5, §6, §7, §8, §9, §10

In assay [4] the target is T1, wild type PKR. The assay can be described thus: Cell based ATP assay in purified red blood cells. To be noted: RBCs, overnight at 37° C., ATP levels by Cell-Titer-Glo. The arrangement: endogenous in cells; host or cells: purified red blood cells from blood of healthy volunteers. The procedure: Example 16. Red Blood Cell (RBC) Purification
Fresh blood drawn from healthy volunteers into K2EDTA tubes was collected. Whole blood was pelleted by spinning at 500 g for 10 minutes. Cut transfusion bag port off of Purecell leukocyte reduction neofilter (Fisher NCO267633) one (1) inch above filter. Attach a 10 ml syringe barrel to the remaining cut tubing attached to neofilter. The plasma layer was removed from the pellet of the whole blood and the pellet was resuspended in 2× volume of phosphate buffered saline (PBS). Transfer 9 ml re-suspended blood cell pellet to prepared 10 ml syringe that is attached to the neofilter. Allow whole blood to gravity flow through filter until all fluid runs through upper tubing into filter disc. Add plunger to the syringe, remove syringe from clamp and invert the filter, then plunge air through the syringe filter system. Using a new 5 ml syringe, remove filtered RBCs from the bag by the syringe port and transfer purified RBCs to a 5 ml snap cap tube that has been incubated on ice. Spin 5 ml snap cap tube at 500 g for 10 minutes at 15 C, aspirate supernatant and resuspend in AGAM (1×PBS, 1% glucose, 170 mg/L adenine, 5.25 g/L mannitol) at a density of 4×10^9 cells/mL.
Example 17. Cell Based ATP Assay
For cell based ATP assays, the compound as described herein was prepared in 100% DMSO as a 10 mM stock. Serial dilutions (1:4) were performed in 96-well V-bottom storage plate and then added 1:100 to 96-well V-bottom plates containing AGAM. RBCs were diluted in AGAM media to a density of 1×10^7 cells/mL before added 90 μL/well to black clear bottom assay plates (final compound concentration at 0.1% DMSO concentration). Assay plates were sealed using aluminum foil seals and incubated overnight at 37° C. in a humidified chamber. ATP levels were read out using Cell-Titer-Glo (Promega).

Molecules are shown by their SMILES. Where only a bound is given, the exact number is not on record here.

T1 sequence (P30613 whole entry): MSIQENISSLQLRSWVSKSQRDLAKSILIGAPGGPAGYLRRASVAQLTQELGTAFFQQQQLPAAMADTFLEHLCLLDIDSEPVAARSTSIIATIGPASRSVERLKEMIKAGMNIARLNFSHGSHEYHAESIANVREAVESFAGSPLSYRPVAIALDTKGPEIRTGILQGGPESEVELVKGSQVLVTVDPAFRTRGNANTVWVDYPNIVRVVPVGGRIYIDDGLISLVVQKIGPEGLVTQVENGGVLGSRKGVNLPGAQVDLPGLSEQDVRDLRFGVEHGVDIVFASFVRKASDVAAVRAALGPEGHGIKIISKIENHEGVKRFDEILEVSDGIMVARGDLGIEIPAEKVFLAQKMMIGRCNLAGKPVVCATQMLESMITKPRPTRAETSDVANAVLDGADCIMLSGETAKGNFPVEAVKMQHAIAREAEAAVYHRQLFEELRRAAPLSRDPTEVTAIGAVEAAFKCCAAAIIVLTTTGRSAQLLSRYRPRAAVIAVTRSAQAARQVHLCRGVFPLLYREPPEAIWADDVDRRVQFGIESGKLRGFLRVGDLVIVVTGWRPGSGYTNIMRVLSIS
PKR R510Q, sequence (P30613 whole entry R510Q): as the sequence (P30613 whole entry) above, with R510Q counted along it
PKR K410E, sequence (P30613 whole entry K410E): as the sequence (P30613 whole entry) above, with K410E counted along it

For `Cn1c2nc(Cc3cc[nH]n3)sc2c2cnn(Cc3csc(C(N)=O)n3)c(=O)c21`, the AC50 in assay [1] was less than 0.3 µM; in assay [2], less than 0.3 µM; in assay [3], less than 0.3 µM; in assay [4], no more than 1 µM.
As to `Cn1c2nc(Cc3cc[nH]n3)sc2c2cnn(Cc3cncs3)c(=O)c21`, the AC50 in assay [1] was less than 0.3 µM; in assay [2], less than 0.3 µM; in assay [3] it was less than 0.3 µM; in assay [4], no more than 1 µM.
In the case of `Cn1c2nc(Cc3cccc(N)n3)sc2c2cnn(Cc3cc[nH]n3)c(=O)c21`, the AC50 in assay [1] was less than 0.3 µM; in assay [2], less than 0.3 µM; in assay [3] it was less than 0.3 µM; in assay [4], no more than 1 µM.
For the compound `Cn1c2nc(Cc3cccc(N)n3)sc2c2cnn(Cc3cscn3)c(=O)c21`, the AC50 in assay [1] was less than 0.3 µM; in assay [2], less than 0.3 µM; in assay [3] it was less than 0.3 µM; in assay [4], no more than 1 µM.
For `Cn1c2nc(Cc3cc[nH]n3)sc2c2cnn(Cc3c[nH]c(N)n3)c(=O)c21`, the AC50 in assay [1] is less than 0.3 µM; in assay [2], less than 0.3 µM; in assay [3], less than 0.3 µM; in assay [4] it was no more than 1 µM.
With `Cn1c2nc(Cc3cc[nH]n3)sc2c2cnn(Cc3[nH]ncc3Cl)c(=O)c21`, the AC50 in assay [1] is less than 0.3 µM; in assay [2] it was less than 0.3 µM; in assay [3], less than 0.3 µM; in assay [4], no more than 1 µM.
With `Cn1c2nc(Cc3c[nH]nn3)sc2c2cnn(Cc3csc(N)n3)c(=O)c21`, the AC50 in assay [1] is less than 0.3 µM; in assay [2] it was less than 0.3 µM; in assay [3], less than 0.3 µM; in assay [4], no more than 1 µM.
As to `Cn1c2nc(Cc3c[nH]nn3)sc2c2cnn(Cc3c[nH]nn3)c(=O)c21`, the AC50 was less than 0.3 µM in assay [1], less than 0.3 µM in assay [2], less than 0.3 µM in assay [3] and no more than 1 µM in assay [4].
With `Cn1c2nc(Cc3ccccn3)sc2c2cnn(Cc3cccc(N)n3)c(=O)c21`, the half-maximal activity concentration (AC50) was less than 0.3 µM in assay [1], less than 0.3 µM in assay [2], less than 0.3 µM in assay [3] and no more than 1 µM in assay [4].
As to `Cn1c2nc(Cc3csc(CO)n3)sc2c2cnn(Cc3cn[nH]n3)c(=O)c21`, the AC50 in assay [1] is less than 0.3 µM; in assay [2], less than 0.3 µM; in assay [3], less than 0.3 µM; in assay [4] it was no more than 1 µM.
As for `Cn1c2nc(C(O)c3cc[nH]n3)sc2c2cnn(Cc3cc[nH]n3)c(=O)c21` (centres unmarked), the AC50 in assay [1] is less than 0.3 µM; in assay [2] it was less than 0.3 µM; in assay [3], less than 0.3 µM; in assay [4], no more than 1 µM.
As for `Cn1c2nc(Cc3c[nH]nn3)sc2c2cnn(Cc3cccc(N)n3)c(=O)c21`, the AC50 was less than 0.3 µM in assay [1], less than 0.3 µM in assay [2], less than 0.3 µM in assay [3] and no more than 1 µM in assay [4].
Take `Cn1c2nc(Cc3cscn3)sc2c2cnn(Cc3c[nH]nn3)c(=O)c21`: the AC50 was less than 0.3 µM in assay [1], less than 0.3 µM in assay [2], less than 0.3 µM in assay [3] and no more than 1 µM in assay [4].
As for `Cn1c2nc(Cc3cscn3)sc2c2cnn(Cc3cccc(N)n3)c(=O)c21`, the AC50 was less than 0.3 µM in assay [1], less than 0.3 µM in assay [2], less than 0.3 µM in assay [3] and no more than 1 µM in assay [4].
As for `Cn1c2nc(Cc3csc(CO)n3)sc2c2cnn(Cc3cccc(N)n3)c(=O)c21`, the AC50 in assay [1] was less than 0.3 µM; in assay [2], less than 0.3 µM; in assay [3], less than 0.3 µM; in assay [4], no more than 1 µM.
As to `Cn1c2nc(Cc3cc[nH]n3)sc2c2cnn(Cc3n[nH]cc3F)c(=O)c21`, the AC50 is less than 0.3 µM in assay [1], less than 0.3 µM in assay [2], less than 0.3 µM in assay [3] and no more than 1 µM in assay [4].
With `Cn1c2nc(Cn3cncn3)sc2c2cnn(Cc3cc[nH]n3)c(=O)c21`, the AC50 in assay [1] is less than 0.3 µM; in assay [2], less than 0.3 µM; in assay [3], less than 0.3 µM; in assay [4] it was no more than 1 µM.
`Cn1c2nc(Cn3ccnc3)sc2c2cnn(Cc3cc[nH]n3)c(=O)c21`: the AC50 in assay [1] was less than 0.3 µM; in assay [2], less than 0.3 µM; in assay [3], 0.301 to 0.8 µM; in assay [4], no more than 1 µM.
Take `Cn1c2nc(Cn3cnnc3)sc2c2cnn(Cc3cc[nH]n3)c(=O)c21`: the AC50 is greater than 0.8 µM in assay [1], greater than 0.8 µM in assay [2], greater than 0.8 µM in assay [3] and greater than 1 µM in assay [4].
With `Cn1c2nc(Cc3cc[nH]n3)sc2c2cnn(Cc3ccc(F)c(Br)n3)c(=O)c21`, the AC50 in assay [1] is less than 0.3 µM; in assay [2] it was less than 0.3 µM; in assay [3], less than 0.3 µM; in assay [4], no more than 1 µM.
As for `Cn1c2nc(Cc3cc[nH]n3)sc2c2cnn(Cc3nc(N)ccc3F)c(=O)c21`, the AC50 in assay [1] is less than 0.3 µM; in assay [2], less than 0.3 µM; in assay [3] it was less than 0.3 µM; in assay [4] it was no more than 1 µM.
Regarding `CN(C)c1cccc(Cn2ncc3c4sc(Cc5cc[nH]n5)nc4n(C)c3c2=O)n1`, the AC50 in assay [1] is less than 0.3 µM; in assay [2] it was less than 0.3 µM; in assay [3] it was less than 0.3 µM; in assay [4], no more than 1 µM.
Take `CN(C)c1cccc(Cc2nc3c(s2)c2cnn(Cc4cc[nH]n4)c(=O)c2n3C)n1`: the half-maximal activity concentration (AC50) is less than 0.3 µM in assay [1], less than 0.3 µM in assay [2], less than 0.3 µM in assay [3] and no more than 1 µM in assay [4].
For the compound `Cn1c2nc(Cc3ncsc3Cl)sc2c2cnn(Cc3c[nH]nn3)c(=O)c21`, the AC50 in assay [1] is less than 0.3 µM; in assay [2] it was less than 0.3 µM; in assay [3], less than 0.3 µM; in assay [4] it was no more than 1 µM.
With `Cn1c2nc(Cc3ncsc3Cl)sc2c2cnn(Cc3cc[nH]n3)c(=O)c21`, the AC50 in assay [1] is less than 0.3 µM; in assay [2] it was less than 0.3 µM; in assay [3] it was less than 0.3 µM; in assay [4], no more than 1 µM.
As to `Cn1c2nc(Cn3cccn3)sc2c2cnn(Cc3cc[nH]n3)c(=O)c21`, the AC50 is less than 0.3 µM in assay [1], less than 0.3 µM in assay [2], less than 0.3 µM in assay [3] and no more than 1 µM in assay [4].
Turning to `Cn1c2nc([C@H](O)c3cc[nH]n3)sc2c2cnn(Cc3cc[nH]n3)c(=O)c21`, the AC50 in assay [1] was less than 0.3 µM; in assay [2] it was less than 0.3 µM; in assay [3] it was less than 0.3 µM; in assay [4], no more than 1 µM.
Turning to `Cn1c2nc([C@@H](O)c3cc[nH]n3)sc2c2cnn(Cc3cc[nH]n3)c(=O)c21`, the AC50 was less than 0.3 µM in assay [1], less than 0.3 µM in assay [2], less than 0.3 µM in assay [3] and no more than 1 µM in assay [4].
For the compound `Cn1c2nc(Cc3cc[nH]n3)sc2c2cnn(Cc3cc(Cl)[nH]n3)c(=O)c21`, the AC50 was less than 0.3 µM in assay [1], less than 0.3 µM in assay [2], less than 0.3 µM in assay [3] and no more than 1 µM in assay [4].
Regarding `COc1ccc(Cn2ncc3c4sc(Cc5cc[nH]n5)nc4n(C)c3c2=O)nc1N`, the AC50 in assay [1] was less than 0.3 µM; in assay [2] it was less than 0.3 µM; in assay [3] it was less than 0.3 µM; in assay [4], no more than 1 µM.
In the case of `Cn1c2nc(Cc3cc[nH]n3)sc2c2cnn(Cc3ccsn3)c(=O)c21`, the AC50 in assay [1] was less than 0.3 µM; in assay [2] it was less than 0.3 µM; in assay [3], less than 0.3 µM; in assay [4], no more than 1 µM.
On to `Cn1c2nc(Cn3cncn3)sc2c2cnn(Cc3n[nH]c(=O)[nH]3)c(=O)c21`, for which, in assay [1], the “PKR WT AC50” value is “No Fit”. Further, the “PKR K410E AC50” value in assay [2] is on record as “No Fit”. The “PK R510Q AC50” value in assay [3] is “No Fit”. Further, the “Cell based ATP assay AC50” value in assay [4] is given as “No Fit”.
